Reference: patent EP0084677A1, “New compound having mucoregulating and fluidifying activity, process for its production and relative pharmaceutical compositions” (priority 1982, dated 1983)

Experiments:
male Wistar rat = assay: Bronchosecretogogue activity (method of Mawatari); assay type: in vivo; details: 500 mg/kg/os, FlNa = Sodium fluoresceine
[1] = system: tracheo-bronchial mucus from rabbit; assay: Fluidifying activity "in vivo" (microviscosimeter on tracheo-bronchial mucus); details: 500 mg/kg/os
Swiss mouse = assay: Acute toxicity (Litchfield and Wilcoxon method), mouse; assay type: in vivo
Excerpt: (§1) The acute toxicity has been determined in Swiss mouse and in Wistar rat for different administra tion routes, according to the method of Litch- field J.T. and Wilcoxon LJ. Pharm. Exp. Therap. 96, 99-113 (1949)]. The results obtained are reported in the following Table I; from the same it can be pointed out how AFP 736 is endowed with a very low acute toxicity.

Wistar rat = assay: Acute toxicity (Litchfield and Wilcoxon method), rat; assay type: in vivo
Excerpt: as §1

male rabbit = assay: Mucosecretolytic activity (technique of Giraldez et al.); assay type: in vivo; details: 500 mg/kg/os

| Compound | % Increase of FlNa in comparison with controls (male Wistar rat) [%] | % Reduction of mucus viscosity [1] [%] | LD50 (Swiss mouse; i.p.) [mg/kg] | LD50 (Swiss mouse; os) [mg/kg] | LD50 (Wistar rat; i.p.) [mg/kg] | LD50 (Wistar rat; os) [mg/kg] | % Increase of secretion in comparison with controls (male rabbit) [%] |
| --- | --- | --- | --- | --- | --- | --- | --- |
| COc1ccccc1OCC(O)CO (centres unmarked) [Guaiphe-nesine, guaiphenesin] | 12.6 |  |  |  |  |  |  |
| COc1ccccc1O [Guaiacol, 2-methoxyphenol] |  | 4.1 |  |  |  |  |  |
| 5-[(2-metho xy-phenoxy) caxbonyloxy]- α,α, 4-trimethyl-3-cyclohexen-1-methanol [AFP 736] | 79.3 | 32.2 | 1750 | 3100 | 2340 | >4000 | 45.5 |
| NC(CSCC(=O)O)C(=O)O (centres unmarked) [Carboxy-methylcysteine, carboxymethylcysteine] | 39.7 |  |  |  |  |  | 40.2 |
| CC1=CCC(C(C)(C)O)CC1O (centres unmarked) [Sobrerol, 2-methyl-5-(1-hydroxy-1-methyl-ethyl)-2-cyclohexen-1-ol] | 33.4 | 15.6 |  |  |  |  | 36.8 |
